Assay type in all cases: cell-based
In data set [1] the test system is MES-SA Dx (human uterine sarcoma). The data set can be described thus: Cytotoxicity test on resistant tumour cell lines, tested compound alone. Conditions: 24 h incubation, survival after 48 h, ± SD. On the procedure: (§1) This test was used to evaluate the survival of human cell lines resistant to doxorubicin (about 100 times) and cross-resistant to daunorubicin, actinomycin D, mitoxantrone, vincristine, vinblastin, taxol, colchicine, and etoposide.
(§2) The following cell lines were used: MCF-7-Dx (human mammary carcinoma), LoVo-Dx (human colon adenocarcinoma), MES-SA Dx (human uterine sarcoma).
(§3) Before using the association doxorubicin-tested compound, the cytotoxicity of the cells was evaluated with the tested compound (alone) as follows: the cells were incubated with the compound, at scalar concentrations (500 μM÷0.97 μM), for 24 hours; the compound was then removed and cell survival was evaluated after 48 hours with the above-mentioned sulforodamine B test. The antiproliferative activity of the compounds was evaluated in terms of IC50 (concentration of the compound that inhibits 50% of cell survival) processed with the above-mentioned curve-fitting program.

Data set [2] has as its system LoVo-Dx (human colon adenocarcinoma). The data set is described as above. As to conditions: 24 h incubation, survival after 48 h, ± SD. As to the method:
as §1, §2, §3

The test system of data set [3] is MCF-7-Dx (human mammary carcinoma). Described as above. As to conditions: 24 h incubation, survival after 48 h, ± SD. As to the method:
as §1, §2, §3

Data set [4] has as its system LoVo (human colon adenocarcinoma). The data set can be described thus: Cytotoxicity test on sensitive tumour cell lines (sulforodamine B test). As to conditions: 24 h incubation, survival after 48 h, ± S.D., read-out: antiproliferative activity IC50, Lovo. As to the method: (§4) This test was used to evaluate the survival of the human cell lines MCF-7 (human mammary carcinoma), LoVo (human colon adenocarcinoma), and MES-SA (human uterine sarcoma). The tumour cells were incubated with the compound, at scalar concentrations, (500 μM÷0.97 μM) for 24 hours; the compound was then removed and cell survival was evaluated after 48 hours using the sulforodamine B test (J. Natl. Cancer Inst. 82, 1107–1112). The antiproliferative activity of the compounds was evaluated in terms of the IC50 (concentration of the molecule that inhibits 50% of cell survival) processed with a curve-fitting program (Am. J. Physiol. 1978., 235, E97–E102) and expressed as μM±S.D.

Data set [5] concerns MCF-7 (human mammary carcinoma). The data set is described as above. As to conditions: 24 h incubation, survival after 48 h, ± S.D., read-out: antiproliferative activity IC50, MCF-7. On the procedure:
as §4

The test system of data set [6] is MES-SA (human uterine sarcoma). The description is as above. Conditions: 24 h incubation, survival after 48 h, ± S.D., read-out: antiproliferative activity IC50, Mes-Sa. As to the method:
as §4

Data set [7] has as its system NB4 cells (acute promyelocytic leukaemia). The data set can be described thus: Flow cytofluorimetric analysis of cell cycle. Further details: APOPTOSIS: unit not given here. Conditions: for APOPTOSIS / G0/G1 / G2/M / S: day 3. As to the method:
The first line used was the NB4 cell line, bearing the t(15;17) chromosomal translocation which generates the fusion protein PML/RARα.
To assess the effect of the tested compounds on the various phases of the cell cycle, on the third day of treatment 500,000 cells were harvested, centrifuged at 1,000 rpm for 10 minutes, washed twice in PBS w/o (PBS without calcium and magnesium) and fixed in a solution of 50% PBS w/o+50% methanol/acetone (1:4 v/v) for at least 1 hour; the cells were then centrifuged as described, washed in PBS w/o and centrifuged again.
200 μl of propidium iodide 100 μg/ml and 200 μl of RNase 150 kU/mg were then added to the cell pellet.
After a 30-min incubation in the dark at room temperature, the samples were analysed by flow cytofluirometry.

For data set [8] the test system is unchanged. Kind of data set: Cell differentiation by reduction of nitroblue tetrazolium (NBT), with suboptimal ATRA. As to conditions: combined with suboptimal doses of ATRA, NBT; for AC50: 3 days, read-out: AC50 (concentration at which the tested compound induces 50% of cell differentiation). As to the method:
The first line used was the NB4 cell line, bearing the t(15;17) chromosomal translocation which generates the fusion protein PML/RARα. This line is very sensitive to the differentiative action of pharmacological doses of ATRA (10^−7–10^−6 M).
The HL60 and NB4 cells were seeded at a density of 150,000 cells/ml in RPMI 1640 medium containing 10% foetal calf serum, and were treated with the tested compounds in the presence and absence of suboptimal doses of ATRA (5–10 nM for NB4 and 0.5 μM for HL60, respectively) in the dark, and returned to the incubator for 3 days without ever replacing the culture medium.
To analyse the differentiative effect of the tested compounds vs ATRA, on the third day of treatment 500,000 viable cells were harvested from each sample, centrifuged for 10 minutes at 1.000 rpm and resuspended in 1 ml of RPMI 1640 medium containing 10% foetal calf serum, 1 mg/ml of nitroblue tetrazolium (NBT) and 100 ng of PMA (phorbol 12-myristate 13-acetate).
The cells thus resuspended were incubated in the dark at 37° C. for 60 minutes.
At the end of the incubation, the cell suspension was centrifuged for 10 minutes at 10,000 rpm; the pellet obtained was then resuspended in 1 ml of PBS containing 10% Triton X-100 and sonicated to lysis.
Spectrophotometric readings of the samples were then taken at a wavelength of 540 nm: samples containing differentiated cells shifted towards a violet colour, whereas control samples and/or samples with non-differentiated cells were colourless or, at any rate, much less intensely coloured.
The AC50 (Activating Concentration) is the concentration at which the tested compound induces 50% of cell differentiation.
Fold Induction is the increase in the differentiation value of the cell sample treated with the tested compound +ATRA vs the value of the cell sample treated with ATRA alone. This value provides an indication of the ability (potency) of the tested compound to enhance ATRA induced cell differentiation.

The record followed here is patent publication US7084166B2, “Bis-heterocyclic compounds with antitumour and chemosensitising activity” (Sigma-Tau Industrie Farmaceutichee Riunite S.p.A., priority 2000, dated 2006).

A word on the IC50: it is the midpoint of a concentration-inhibition curve.

Like-named read-outs stand apart in the source and are kept apart here.

As to `CCCC(c1c[nH]c2cc3c(cc12)OCO3)c1c[nH]c2cc3c(cc12)OCO3` [ST 1478, 1,1-di-(5,6-methylenedioxy-indol-3-yl)-butane], the IC50 stood at 7.8 ± 1.5 µM in data set [1] (Homo sapiens, MES-SA Dx); 10.7 ± 0.6 µM in data set [2] (Homo sapiens, LoVo/DX); 15.2 ± 1.9 µM in data set [3] (Homo sapiens, MCF7/DX); 15.4 ± 1.8 µM in data set [4] (Homo sapiens, LoVo); 11.8 ± 0.4 µM in data set [5] (Homo sapiens, MCF7); 17 ± 2 µM in data set [6] (Homo sapiens, MES-SA).

Consider `c1ccc2c(C(c3c[nH]c4ccccc34)C3CCCCC3)c[nH]c2c1` [ST 1487, 1,1-di-(indol-3-yl)-cyclohexylmethane], for which the IC50 in data set [1] is 16 ± 3.5 µM; in data set [2] it was 27.8 ± 2.1 µM; in data set [3], 15.3 ± 1 µM; in data set [4], 24.9 ± 0.1 µM; in data set [5] it was 29.9 ± 0.006 µM; in data set [6] it was 38.7 ± 0.03 µM.

Regarding `CS(=O)(=O)OCCCCC(c1c[nH]c2ccccc12)c1c[nH]c2ccccc12` [ST 1488, 1,1-di-(indol-3-yl)-5-mesyloxy-pentane], the IC50 is 10.3 ± 1.9 µM in data set [1] (Homo sapiens, MES-SA Dx); 18.1 ± 0.6 µM in data set [2] (Homo sapiens, LoVo/DX); 9.7 ± 1.3 µM in data set [3] (Homo sapiens, MCF7/DX); 11 ± 1.6 µM in data set [4] (Homo sapiens, LoVo); 13.4 ± 2.2 µM in data set [5] (Homo sapiens, MCF7); 15.8 ± 1.8 µM in data set [6] (Homo sapiens, MES-SA).

Regarding `OCCCC(c1c[nH]c2ccccc12)c1c[nH]c2ccccc12` [ST 1707, 1,1-di(indol-3-yl)-4-hydroxy-butane], the APOPTOSIS in data set [7] (compound 1 μM + ATRA 0.01 μM) came out at 17.0; in data set [7] (compound 5 μM + ATRA 0.01 μM), 14.0; in data set [7] (compound 10 μM + ATRA 0.01 μM), 13.0; in data set [7] (compound 50 μM + ATRA 0.01 μM) it was 11.5; in data set [7] (compound alone 1 μM), 17.0; in data set [7] (compound alone 5 μM) it was 19.5. The APOPTOSIS in data set [7] (compound alone 10 μM) is listed as 17.5; in data set [7] (compound alone 50 μM), 17.0. The G0/G1 in data set [7] (compound 1 μM + ATRA 0.01 μM) was found to be 65.4; in data set [7] (compound 5 μM + ATRA 0.01 μM), 69.8; in data set [7] (compound 10 μM + ATRA 0.01 μM), 70.4; in data set [7] (compound 50 μM + ATRA 0.01 μM) it was 80.6; in data set [7] (compound alone 1 μM) it was 51.7; in data set [7] (compound alone 5 μM), 52.5. For the same compound, the G0/G1 in data set [7] (compound alone 10 μM) is given as 52.2; in data set [7] (compound alone 50 μM), 52.0. For the same compound, the G2/M came out at 11.8 in data set [7] (compound 1 μM + ATRA 0.01 μM); 11.3 in data set [7] (compound 5 μM + ATRA 0.01 μM); 11.5 in data set [7] (compound 10 μM + ATRA 0.01 μM); 9.0 in data set [7] (compound 50 μM + ATRA 0.01 μM); 10.1 in data set [7] (compound alone 1 μM); 11.1 in data set [7] (compound alone 5 μM). In addition, the G2/M in data set [7] (compound alone 10 μM) is recorded as 10.8; in data set [7] (compound alone 50 μM), 12.0. The S was 22.8 in data set [7] (compound 1 μM + ATRA 0.01 μM); 18.9 in data set [7] (compound 5 μM + ATRA 0.01 μM); 18.1 in data set [7] (compound 10 μM + ATRA 0.01 μM); 10.4 in data set [7] (compound 50 μM + ATRA 0.01 μM); 38.2 in data set [7] (compound alone 1 μM); 36.4 in data set [7] (compound alone 5 μM). Moreover, the S in data set [7] (compound alone 10 μM) is listed as 37.0; in data set [7] (compound alone 50 μM), 36.0. Besides, in data set [7] (compound alone (ST 1346: high doses)), the “effect of the compound alone on cell cycle and apoptosis (in words)” value is given as “does not induce apoptosis”. In addition, in data set [8] (Homo sapiens, NB-4, 72 h), the AC50 turned out to be 8.3 ± 0.05 µM. Further, the “fold induction (differentiation, compound + ATRA vs ATRA alone)” value in data set [8] is on record as 2.5.

In data set [7] (compound alone 1 μM), `O=C(O)CCC(c1c[nH]c2ccccc12)c1c[nH]c2ccccc12` [ST 1961, 4,4-di-(1H-indolyl-)butanoic acid] registered an APOPTOSIS of 18.5, a G0/G1 of 47.5, a G2/M of 15.6 and an S of 36.9. For the same compound, in data set [7] (compound alone 5 μM), the APOPTOSIS came out at 24.0, the G0/G1 is listed as 49.7, the G2/M was determined as 13.0 and the S is recorded as 37.3. Besides, in data set [7] (compound alone 10 μM), the APOPTOSIS came out at 24.0, the G0/G1 came out at 48.4, the G2/M worked out at 14.1 and the S is 37.5. In data set [7] (compound alone 50 μM), this compound displayed an APOPTOSIS of 24.0, a G0/G1 of 56.3, a G2/M of 14.0 and an S of 29.7. Also, in data set [8], the AC50 turned out to be 6.6 ± 2 µM and the “fold induction (differentiation, compound + ATRA vs ATRA alone)” value is recorded as 1.4.
